Data reported in ChEMBL document CHEMBL3853267 (Medchemcomm, 2016).

Legend:
Rattus norvegicus [1] = organism: Rattus norvegicus; experiment: Selectivity ratio of EC50 for DAT in rat synaptosomes to EC50 for SERT in rat synaptosomes; format: subcellular
[2] = target: T1, 5-hydroxytryptamine receptor 2A (Homo sapiens, UniProt P28223); experiment: Agonist activity at human 5-HT2A receptor expressed in HEK293 cells assessed as induction of calcium mobilization incubated for 15 mins by calcium 5 dye-based fluorescence assay; format: cell-based
T1 sequence (P28223 whole entry): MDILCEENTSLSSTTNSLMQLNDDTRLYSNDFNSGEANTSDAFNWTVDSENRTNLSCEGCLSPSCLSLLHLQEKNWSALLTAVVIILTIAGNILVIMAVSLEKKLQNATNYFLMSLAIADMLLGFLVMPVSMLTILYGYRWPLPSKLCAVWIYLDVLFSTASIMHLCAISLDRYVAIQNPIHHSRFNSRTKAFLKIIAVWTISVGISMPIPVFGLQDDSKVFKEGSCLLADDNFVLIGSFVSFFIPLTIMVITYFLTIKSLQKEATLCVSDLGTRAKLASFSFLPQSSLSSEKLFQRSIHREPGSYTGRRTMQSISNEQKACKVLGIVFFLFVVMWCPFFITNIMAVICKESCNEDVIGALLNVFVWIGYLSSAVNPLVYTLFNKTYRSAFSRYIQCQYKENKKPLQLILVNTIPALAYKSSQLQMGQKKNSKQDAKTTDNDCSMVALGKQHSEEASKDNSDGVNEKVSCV

[3] = Activity at NET in rat synaptosomes obtained from whole brain minus striatum and cerebellum assessed as release of [3H]MPP+ by liquid scintillation counting method; format: subcellular
[4] = target: T2, 5-hydroxytryptamine receptor 2C (Homo sapiens, UniProt P28335); experiment: Agonist activity at human 5-HT2C receptor expressed in HEK293 cells assessed as induction of calcium mobilization incubated for 15 mins by calcium 5 dye-based fluorescence assay; format: functional, cell-based
T2 sequence (P28335 whole entry): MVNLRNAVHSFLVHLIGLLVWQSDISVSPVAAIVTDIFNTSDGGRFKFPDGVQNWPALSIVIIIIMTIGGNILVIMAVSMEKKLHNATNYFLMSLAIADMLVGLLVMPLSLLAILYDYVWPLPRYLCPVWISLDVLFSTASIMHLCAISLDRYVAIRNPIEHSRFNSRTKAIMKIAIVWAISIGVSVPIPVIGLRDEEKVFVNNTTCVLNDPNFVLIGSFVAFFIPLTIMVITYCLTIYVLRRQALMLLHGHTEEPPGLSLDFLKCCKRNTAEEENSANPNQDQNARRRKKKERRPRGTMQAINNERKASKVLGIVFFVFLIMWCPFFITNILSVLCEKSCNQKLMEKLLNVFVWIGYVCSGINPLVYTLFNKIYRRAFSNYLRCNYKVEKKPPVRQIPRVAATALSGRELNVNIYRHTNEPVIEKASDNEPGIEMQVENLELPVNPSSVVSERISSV

[5] = target: Sodium-dependent serotonin transporter (Rattus norvegicus, UniProt P31652); experiment: Activity at SERT in rat synaptosomes obtained from whole brain minus striatum and cerebellum assessed as release of [3H]5-HT by liquid scintillation counting method; format: subcellular
Sodium-dependent serotonin transporter, sequence (P31652 whole entry): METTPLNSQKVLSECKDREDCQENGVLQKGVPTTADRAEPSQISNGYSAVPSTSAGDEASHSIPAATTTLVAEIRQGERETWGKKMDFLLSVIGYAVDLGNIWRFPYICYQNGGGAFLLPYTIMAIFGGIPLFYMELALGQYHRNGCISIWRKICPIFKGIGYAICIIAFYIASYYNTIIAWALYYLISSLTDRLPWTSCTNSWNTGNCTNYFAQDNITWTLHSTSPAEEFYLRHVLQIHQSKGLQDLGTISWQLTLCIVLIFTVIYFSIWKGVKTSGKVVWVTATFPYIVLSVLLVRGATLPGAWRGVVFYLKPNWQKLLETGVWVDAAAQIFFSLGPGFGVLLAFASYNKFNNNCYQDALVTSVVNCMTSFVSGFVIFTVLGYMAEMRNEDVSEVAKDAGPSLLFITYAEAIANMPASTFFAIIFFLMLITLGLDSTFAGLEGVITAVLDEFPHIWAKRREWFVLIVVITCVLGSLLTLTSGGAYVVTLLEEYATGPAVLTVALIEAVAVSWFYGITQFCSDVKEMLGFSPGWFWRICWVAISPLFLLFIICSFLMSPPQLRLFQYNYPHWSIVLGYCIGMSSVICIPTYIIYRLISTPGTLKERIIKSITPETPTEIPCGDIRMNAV

Rattus norvegicus [6] = organism: Rattus norvegicus; experiment: Selectivity ratio of EC50 for DAT in rat synaptosomes to EC50 for NET in rat synaptosomes; format: subcellular
[7] = target: T3, 5-hydroxytryptamine receptor 2C (Homo sapiens) (UniProt P28335); experiment: Agonist activity at human 5-HT2C receptor expressed in HEK293 cells by [3H]-inositol phosphate accumulation assay relative to 5-HT; format: functional, cell-based
T3 sequence (whole entry): T2 sequence (P28335 whole entry)

[8] = target: T2, 5-hydroxytryptamine receptor 2C; experiment: Agonist activity at human 5-HT2C receptor expressed in HEK293 cells by [3H]-inositol phosphate accumulation assay; format: functional, cell-based
[9] = target: T1, 5-hydroxytryptamine receptor 2A; experiment: Agonist activity at human 5-HT2A receptor expressed in HEK293 cells by [3H]-inositol phosphate accumulation assay; format: cell-based
[10] = target: 5-hydroxytryptamine receptor 2B (Homo sapiens, UniProt P41595); experiment: Agonist activity at human 5-HT2B receptor expressed in HEK293 cells by [3H]-inositol phosphate accumulation assay; format: cell-based
5-hydroxytryptamine receptor 2B, sequence (P41595 whole entry): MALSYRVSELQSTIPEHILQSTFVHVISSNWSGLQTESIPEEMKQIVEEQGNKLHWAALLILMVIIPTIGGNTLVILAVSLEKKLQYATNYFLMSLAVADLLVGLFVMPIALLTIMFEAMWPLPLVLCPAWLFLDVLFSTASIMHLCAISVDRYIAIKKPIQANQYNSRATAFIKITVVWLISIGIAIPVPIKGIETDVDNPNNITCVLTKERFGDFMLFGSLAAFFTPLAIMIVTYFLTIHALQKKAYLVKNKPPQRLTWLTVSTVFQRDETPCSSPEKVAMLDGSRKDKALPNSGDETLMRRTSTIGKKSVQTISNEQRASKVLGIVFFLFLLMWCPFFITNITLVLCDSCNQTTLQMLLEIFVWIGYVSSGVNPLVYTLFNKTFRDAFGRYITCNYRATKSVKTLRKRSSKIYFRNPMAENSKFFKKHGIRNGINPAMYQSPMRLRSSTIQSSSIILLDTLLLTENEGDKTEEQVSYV

Rattus norvegicus [11] = organism: Rattus norvegicus; experiment: Selectivity ratio of EC50 for NET in rat synaptosomes to EC50 for DAT in rat synaptosomes; format: subcellular
Rattus norvegicus [12] = organism: Rattus norvegicus; experiment: Selectivity ratio of EC50 for NET in rat synaptosomes to EC50 for SERT in rat synaptosomes; format: subcellular

SMILES | Ratio EC50 (Rattus norvegicus [1]) | EC50 [3] [nM] | other results
C[C@@H](N)C/C=C/c1ccccc1 | 5 | 279 | EC50 [2]: > 10000 nM
C[C@H](N)C/C=C\c1ccccc1 | – | 170 | EC50 [4]: > 10000 nM; EC50 [5]: 663 nM
CC(N)/C=C\c1ccccc1 (stereo not drawn) | – | 301 | EC50 [5]: > 10000 nM; Ratio EC50 (Rattus norvegicus [6]): 3.7
C[C@@H](N)C/C=C\c1ccccc1 | 1.2 | 211 | Ratio EC50 (Rattus norvegicus [6]): 6.7
CC(N)Cc1ccc2ccccc2c1 (stereo not drawn) | – | – | Emax [7]: 20%; EC50 [8]: 2.3 nM; EC50 [9]: 466 nM; EC50 [10]: 40 nM
CC(N)/C=C/c1ccccc1 (stereo not drawn) | – | 308 | EC50 [5]: > 10000 nM; Ratio EC50 (Rattus norvegicus [6]): 2.2
CC(N)C/C=C\c1ccccc1 (racemic) | 1.4 | 621 | –
C[C@@H](N)CC#Cc1ccccc1 | 2.3 | 496 | EC50 [2]: > 10000 nM
CC(N)CC#Cc1ccccc1 (racemic) | 2.6 | 2980 | Ratio EC50 (Rattus norvegicus [11]): 3
C[C@H](N)C/C=C/c1ccccc1 | 5 | 138 | Ratio EC50 (Rattus norvegicus [12]): 3.5
C[C@H](N)CC#Cc1ccccc1 | – | 784 | –
CC(N)C/C=C/c1ccccc1 (racemic) | 5 | 239 | –
